Data: patent US4624950A, “Method for treating atherosclerosis hyperlipidema, lipid deposition on arterial walls, or raising the ratio of high density lipoprotein cholesterol to total cholesterol in serum” (Nissan Chemical Industries Ltd., priority 1983, dated 1986)
Blank lines part the entries; values can stand above or below the molecule they belong to.

How the values were obtained:
[1] = test system: Triton-induced hyperlipidemic rats; assay: Antihyperlipidemic activity in Triton-induced hyperlipidemic rats, method A (24 hours) (Test 2); type: in vivo, rat (male S.D.)
Protocol: (§1) Cholesterol in serum was measured by means of a cholesterol measuring kit (Cholesterol C-Test Wako, manufactured by Wako Junyaku Co., Ltd.), and cholesterol in HDL was measured by means of NC Hi-Set, manufactured by Nippon Chemiphar Co., Ltd. The quantitative analysis of triglyceride was conducted by means of a triglyceride measuring kit (Triglyceride C-II-Test Wako, manufactured by Wako Junyaku Co., Ltd.). Further, the change rate in the following Tables, was calculated by the following equation. Change rate(%)=(A-B/A)×100 where A is the amount of serum lipids (mg/dl) of the control group, and B is the amount of serum lipids (mg/dl) of the group to which the therapeutic agent was administered. The antihyperlipidemic activity in Triton-induced hyperlipidemic rats Male S.D. rats weighing 230-250 g (7 weeks old) were divided into groups of 5 rats each and injected with a physiological saline solution of Triton Wr-1339 in a dose of 250 mg/kg (5 ml/kg) i.v. through the tail vein. […] The test compounds suspended in 0.5% CMC-Na were given to the rats in an amount of 2 ml/kg via stomach tube 1 hour before and 5 hours after (in the case of method A) or 1 hour before and 23 hours after (in the case of method B) the injection of Triton solution. Control rats received the same volume of the vehicle. The animals were fasted during the experimental period. The total cholesterol and triglyceride in the serum were measured.

[2] = test system: Triton-induced hyperlipidemic rats; assay: Antihyperlipidemic activity in Triton-induced hyperlipidemic rats, method B (43 hours) (Test 2); type: in vivo, rat (male S.D.)
Protocol: as §1

[3] = test system: emulsion-induced hyperlipidemic rats; assay: Antihyperlipidemic activity in emulsion-induced hyperlipidemic rats (Test 1); type: in vivo, rat (male S.D.); settings: 300 mg/kg/day p.o., 3 days
Protocol: The daily dose of the compound of the formula I is from 0.01 to 3.0 g, preferably from 0.1 to 1.5 g, for an adult. It is administered from once to three times per day. The dose may of course be varied depending upon the age, the weight or the condition of illness of the patient. Now, the usefulness of the compound of the formula I as an antiatherosclerotic agent will be shown by tests. In the following tests, the fractionation of lipoproteins was conducted by a dextran sulfate-MgCl2 precipitation method.
(§2) Cholesterol in serum was measured by means of a cholesterol measuring kit (Cholesterol C-Test Wako, manufactured by Wako Junyaku Co., Ltd.), and cholesterol in HDL was measured by means of NC Hi-Set, manufactured by Nippon Chemiphar Co., Ltd. The quantitative analysis of triglyceride was conducted by means of a triglyceride measuring kit (Triglyceride C-II-Test Wako, manufactured by Wako Junyaku Co., Ltd.).
(§3) Further, the change rate in the following Tables, was calculated by the following equation.
(§4) Change rate(%)=(A-B/A)×100
(§5) where A is the amount of serum lipids (mg/dl) of the control group, and B is the amount of serum lipids (mg/dl) of the group to which the therapeutic agent was administered.
The antihyperlipidemic activity in emulsion-induced hyperlipidemic rats
Male S.D. rats weighing 80-90 g (4 weeks old) were used. They were divided into groups of 5 to 6 rats each. The test compounds suspended in 0.5% CMC-Na(carboxymethyl cellulose sodium salt) were given to the rats in a daily dose of 4 ml/kg via stomach tube every 10:00 a.m. After 30 min., lipids emulsion having the following composition was orally given to the rats in an amount of 2.5 ml per rat. During the experimental period of 3 days, the rats were fed on a standard commercial diet and water ad libitum. […] The total cholesterol and triglyceride, and HDL cholesterol were measured.

[4] = test system: cholesterol-fed hyperlipidemic rats; assay: Antihyperlipidemic activity in cholesterol-fed hyperlipidemic rats (Test 3); type: in vivo, rat (male S.D.)
Protocol: (§6) It is administered from once to three times per day. The dose may of course be varied depending upon the age, the weight or the condition of illness of the patient. […] In the following tests, the fractionation of lipoproteins was conducted by a dextran sulfate-MgCl2 precipitation method.
as §2, §3
Change rate(%)=(A-B/A)×100 where A is the amount of serum lipids (mg/dl) of the control group, and B is the amount of serum lipids (mg/dl) of the group to which the therapeutic agent was administered.
The antihyperlipidemic activity in cholesterol-fed hyperlipidemic rats
Male S.D. rats weighing 80-90 g (30 days old) were divided into groups of 5 rats each. The test compounds suspended in 0.5% CMC-Na were given to the rats in a daily dose of 0.4 ml per 100 g rat via stomach tube every 10:00 a.m. for 7 or 14 days. Control groups were given an equal volume of the vehicle. […] The total cholesterol, triglyceride and HDL cholesterol in serum were measured. After sacrificed, the livers were excised, washed with physiological saline, blotted on filter paper and weighed. The degree of hepatomegaly was calculated by the following equation.
Degree of hepatomegaly (%)=(D-C/C)×100 where C is the liver weight (g) per 100 g body weight in the control animal, and D is the liver weight (g) per 100 g body weight in the drug treated animal.

normal rats = assay: Activities against serum lipid, degree of hepatomegaly and GOT/GPT in normal rats (Test 5); type: in vivo, rat (male S.D.); settings: 300 mg/kg/day, seven days
Protocol: as §6, §2, §3, §4, §5
The activities against serum lipid, the degree of hepatomegaly and the hepatic drug metabolizing systems of normal rats
Male S.D. rats (6 weeks old) were divided into groups of 5 rats each. The test compounds suspended in 5% gum arabic were given to the rats once a day for seven days in a daily dose of 300 mg/kg. Then, the rats were fasted for one day, blood samples were taken, and the total cholesterol, triglyceride, HDL-cholesterol in the serum were quantitatively analyzed. Further, the liver weight was measured, and the degree of hepatomegaly was determined by comparing the weight ratio per 100 g of the body weight with that of the control group. Furthermore, GOT and GPT values were measured, and the activities of cytochrome P-450 and glutathione related enzymes were also measured. These values were compared with those of the control groups to investigate any abnormality.

[5] = reported for the agent and its derivatives; cited from earlier work
[6] = animal experiments; Svoboda and Azarnoff, Cancer Res. 39, 3419 (1979); cited from earlier work

SMILES: CCC(C)(Oc1ccc(C2(c3ccc(OC(C)(CC)C(=O)O)cc3)CCCCC2)cc1)C(=O)O (stereo not shown) [Clinofibrate]
Change rate after 24 hours, Chol ([1]; 150 mg/kg p.o.): -21.0%
Change rate after 24 hours, TG ([1]; 150 mg/kg p.o.): -33.0%
Change rate after 43 hours, Chol ([2]; 150 mg/kg p.o.): -38.0%
Change rate after 43 hours, TG ([2]; 150 mg/kg p.o.): -52.0%

Degree of hepatomegaly ([4]; 7th day, 50 mg/kg/day p.o.): +6.0%
Degree of hepatomegaly ([4]; 7th day, 150 mg/kg/day p.o.): +20.0%
Degree of hepatomegaly ([4]; 14th day, 50 mg/kg/day p.o.): +8.8%
Degree of hepatomegaly ([4]; 14th day, 150 mg/kg/day p.o.): +22.8%
Degree of hepatomegaly (normal rats; vs control): +72.0%
SMILES: CCOC(=O)C(C)(C)Oc1ccc(Cl)cc1 [Clofibrate, reference compound]
Serum lipid, HDL-Chol [3]: 16.8 mg/dL
Serum lipid, TG [3]: 87.7 mg/dL
Serum lipid, Total Chol [3]: 96.4 mg/dL
Change rate, HDL-Chol ([3]; vs control): +37.0%
Change rate, TG ([3]; vs control): -42.7%
Change rate, Total Chol ([3]; vs control): -63.5%
Change rate after 24 hours, Chol ([1]; 300 mg/kg p.o.): -5.0%
Change rate after 24 hours, TG ([1]; 300 mg/kg p.o.): +89.7%
Change rate after 43 hours, Chol ([2]; 300 mg/kg p.o.): -0.5%
Change rate after 43 hours, TG ([2]; 300 mg/kg p.o.): +150.1%
Change rate, HDL-Chol ([4]; 7th day, 50 mg/kg/day p.o.): -20.4%
Change rate, TG ([4]; 7th day, 50 mg/kg/day p.o.): +8.7%
Change rate, Total-Chol ([4]; 7th day, 50 mg/kg/day p.o.): -4.3%
Serum lipid, HDL-Chol ([4]; 7th day, 50 mg/kg/day p.o.): 14.4 mg/dL
Serum lipid, TG ([4]; 7th day, 50 mg/kg/day p.o.): 133.5 mg/dL
Serum lipid, Total-Chol ([4]; 7th day, 50 mg/kg/day p.o.): 417.5 mg/dL
Change rate, HDL-Chol ([4]; 7th day, 150 mg/kg/day p.o.): -34.8%
Change rate, TG ([4]; 7th day, 150 mg/kg/day p.o.): -9.0%
Change rate, Total-Chol ([4]; 7th day, 150 mg/kg/day p.o.): -23.8%
Serum lipid, HDL-Chol ([4]; 7th day, 150 mg/kg/day p.o.): 11.8 mg/dL
Serum lipid, TG ([4]; 7th day, 150 mg/kg/day p.o.): 111.8 mg/dL
Serum lipid, Total-Chol ([4]; 7th day, 150 mg/kg/day p.o.): 332.2 mg/dL
Change rate, HDL-Chol ([4]; 14th day, 50 mg/kg/day p.o.): +8.0%
Change rate, TG ([4]; 14th day, 50 mg/kg/day p.o.): -30.1%
Change rate, Total-Chol ([4]; 14th day, 50 mg/kg/day p.o.): -28.5%
Serum lipid, HDL-Chol ([4]; 14th day, 50 mg/kg/day p.o.): 9.4 mg/dL
Serum lipid, TG ([4]; 14th day, 50 mg/kg/day p.o.): 116.6 mg/dL
Serum lipid, Total-Chol ([4]; 14th day, 50 mg/kg/day p.o.): 418.4 mg/dL
Change rate, HDL-Chol ([4]; 14th day, 150 mg/kg/day p.o.): +68.1%
Change rate, TG ([4]; 14th day, 150 mg/kg/day p.o.): -29.8%
Change rate, Total-Chol ([4]; 14th day, 150 mg/kg/day p.o.): -28.3%
Serum lipid, HDL-Chol ([4]; 14th day, 150 mg/kg/day p.o.): 15.8 mg/dL
Serum lipid, TG ([4]; 14th day, 150 mg/kg/day p.o.): 117.7 mg/dL
Serum lipid, Total-Chol ([4]; 14th day, 150 mg/kg/day p.o.): 420.0 mg/dL
Serum lipid, HDL-Chol (normal rats): 11.0 mg/dL
Serum lipid, TG (normal rats): 39.2 mg/dL
Serum lipid, Total-Chol (normal rats): 20.6 mg/dL
Change rate, HDL-Chol (normal rats; vs control): -62.7%
Change rate, TG (normal rats; vs control): -17.5%
Change rate, Total-Chol (normal rats; vs control): -56.0%
Reported side effects [5]: myalgia or hepatic insufficiency, and they are likely to lead to gallstone formation
Hepatic carcinoma [6]: brings about hepatic carcinoma

SMILES: O=C(O)c1cccnc1 [nicotinic acid]
Reported side effects [5]: flashing or gastroenteric troubles
